In USH1209H, “No-carrier-added (18F)-N-methylspiroperidol” (The United States of America as represented by the United …, priority 1985, dated 1993):
Read-outs that look alike come from different tables or passages of the source.

Key:
[1] = Baboon plasma analyses (total plasma radioactivity clearance and unchanged radioligand); settings: for remaining at 40 s / remaining at 4 min / remaining at 10 min / remaining at 0.5 h / remaining at 1 h / remaining at 2 h / remaining at 3 h / remaining at 4 h: plasma; for remaining at 40 s: 0.67 min after injection; for remaining at 4 min: 4.0 min after injection; for remaining at 0.5 h: 30 min after injection; for remaining at 1 h: 60 min after injection; for remaining at 2 h: 120 min after injection; for remaining at 3 h: 180 min after injection; for remaining at 4 h: 240 min after injection
Excerpt: (§1) A young adult (12 kg) female baboon (Papio anubis) was anesthesized initially with ketamine and subsequently maintained under halothane/nitrous oxide anesthesia for two PETT studies. […] Pett scans were made continually for 4 hrs from the time of radioisotope injection.
Blood was sampled from the femoral artery at initial intervals of 5 secs. Aliquots of plasma were counted to determine the total plasma radioactivity of clearance curves.

[2] = Metabolic stability and uptake in rat brain (striatum, cerebellum); type: in vivo, rat (male BNL R strain); settings: for remaining at 1 h / remaining at 4 h: iv, n = 2; for remaining at 1 h: 1 h after injection; for remaining at 4 h: 4 h after injection
dopamine receptors = experiment: PETT baboon studies: striatum and cerebellum radioactivity after i.v. [^18 F]-N-methylspiroperidol, with (-)- or (+)-butaclamol pretreatment
Excerpt: as §1

[3] = Tissue distribution of radioactivity in mice; type: in vivo, mouse; settings: for tissue uptake at 5 min / tissue uptake at 1 h / tissue uptake at 2 h: read-out: Tissue distribution, % Dose/g
Excerpt: As noted in Example 3 for the rat, the mouse brain uptake of radioactivity was higher for radiolabeled N-methylspiroperidol (1.1% of the administered dose).

[4] = baboon, iv, % [^18 F]-N-Methylspiroperidol in Plasma, baboon plasma
[5] = baboon, iv, % of ^18 F in CH3 CN as [^18 F]-N-Methylspiroperidol, baboon plasma

SMILES: CN1CN(c2ccccc2)C2(CCN(CCCC(=O)c3ccc([18F])cc3)CC2)C1=O [[^18 F]-N-methylspiroperidol]
- time course of distribution compared with [^18 F]spiroperidol ([1]; Example 2): more rapid
- appearance of peripheral radioactive metabolites compared with [^18 F]spiroperidol ([1]; baboon plasma): more rapid
- time for blood radioactivity to drop below the brain concentration ([1]; baboon, after injection): ≤ 90 s
- remaining at 40 s [1, 4]: 81%
- remaining at 4 min [1, 4]: 66%
- remaining at 10 min ([1]; baboon, iv, % [^18 F]-N-Methylspiroperidol in Plasma, baboon plasma, 10 min after injection): 43%
- remaining at 0.5 h [1, 4]: 18%
- remaining at 1 h [1, 4]: 18%
- remaining at 2 h [1, 4]: 11%
- remaining at 3 h [1, 4]: 11%
- remaining at 4 h [1, 4]: 9.4%
- remaining at 40 s [1, 5]: 88%
- remaining at 4 min [1, 5]: 78%
- remaining at 10 min ([1]; baboon, iv, % of ^18 F in CH3 CN as [^18 F]-N-Methylspiroperidol, baboon plasma, 10 min after injection): 60%
- remaining at 0.5 h [1, 5]: 32%
- remaining at 1 h [1, 5]: 36%
- remaining at 2 h [1, 5]: 26%
- remaining at 3 h [1, 5]: 29%
- remaining at 4 h [1, 5]: 26%
- remaining at 10 min ([1]; baboon, plasma radioactivity due to unaltered radioligand, baboon plasma, 10 mins after injection): 43%
- blood clearance ([1]; baboon, total plasma radioactivity): very rapid
- remaining at 1 h ([2]; rat cerebellum, ind. values 90, 90): 90%
- remaining at 4 h ([2]; rat cerebellum, ind. values 85, 85): 85%
- remaining at 1 h ([2]; rat striatum, ind. values 95, 96): 96%
- remaining at 4 h ([2]; rat striatum, ind. values 98, 97): 98%
- metabolism in the rat brain ([2]; rat brain): very little metabolism
- specifically bound component of radioactivity in the striatum (striatum minus cerebellum) (dopamine receptors; 4 hrs after injection): still increasing at 4 hrs after injection
- striatum and cerebellum radioactivity curves, access to specific binding sites (dopamine receptors; after 0.5 mg/kg (+)-butaclamol pretreatment): no longer had access to specific binding sites
- radioactivity in the cerebellum (dopamine receptors; after the first few minutes, control study): declined rapidly in the cerebellum
- absolute striatal uptake, excess over [^18 F]spiroperidol (dopamine receptors; control study, (-)-butaclamol 0.5 mg/kg pretreatment): more than two-fold
- Influx into striatum and cerebellum (dopamine receptors; first few minutes, control study): equal for the first few minutes
- radioactivity in the striatum (dopamine receptors; up to 4 hrs, control study): increasing for up to 4 hrs in the striatum
- tissue distribution of radioactivity compared with that reported for N-[^11 C] methylspiroperidol ([3]; mouse): very little difference
- tissue uptake at 5 min ([3]; mouse blood, 5 min, mean of three mice, range 1.0-1.5): 1.2 %ID/g
- tissue uptake at 1 h ([3]; mouse blood, 60 min, mean of three mice, range 0.40-0.50): 0.45 %ID/g
- tissue uptake at 2 h ([3]; mouse blood, 120 min, mean of four mice, range 0.15-0.27): 0.19 %ID/g
- mouse brain uptake of radioactivity ([3]; mouse brain): 1.1 % of the administered dose
- Tissue distribution, % Dose/Organ ([3]; mouse brain, 5 min, mean of three mice, range 1.0-1.1): 1.1 % Dose/Organ
- tissue uptake at 5 min ([3]; mouse brain, 5 min, mean of three mice, range 2.2-2.4): 2.3 %ID/g
- Tissue distribution, % Dose/Organ ([3]; mouse brain, 60 min, mean of three mice, range 0.60-0.74): 0.68 % Dose/Organ
- tissue uptake at 1 h ([3]; mouse brain, 60 min, mean of three mice, range 1.3-1.8): 1.5 %ID/g
- Tissue distribution, % Dose/Organ ([3]; mouse brain, 120 min, mean of four mice, range 0.43-0.68): 0.57 % Dose/Organ
- tissue uptake at 2 h ([3]; mouse brain, 120 min, mean of four mice, range 1.1-1.6): 1.3 %ID/g
- Tissue distribution, % Dose/Organ ([3]; mouse heart, 5 min, mean of three mice, range 0.35-0.42): 0.37 % Dose/Organ
- tissue uptake at 5 min ([3]; mouse heart, 5 min, mean of three mice, range 3.2-3.4): 3.3 %ID/g
- Tissue distribution, % Dose/Organ ([3]; mouse heart, 60 min, mean of three mice, range 0.064-0.076): 0.072 % Dose/Organ
- tissue uptake at 1 h ([3]; mouse heart, 60 min, mean of three mice, range 0.59-0.65): 0.61 %ID/g
- Tissue distribution, % Dose/Organ ([3]; mouse heart, 120 min, mean of four mice, range 0.020-0.030): 0.026 % Dose/Organ
- tissue uptake at 2 h ([3]; mouse heart, 120 min, mean of four mice, range 0.18-0.35): 0.24 %ID/g
- Tissue distribution, % Dose/Organ ([3]; mouse kidneys, 5 min, mean of three mice, range 4.2-4.8): 4.5 % Dose/Organ
- tissue uptake at 5 min ([3]; mouse kidneys, 5 min, mean of three mice, range 11-13): 12 %ID/g
- Tissue distribution, % Dose/Organ ([3]; mouse kidneys, 60 min, mean of three mice, range 1.1-1.3): 1.2 % Dose/Organ
- tissue uptake at 1 h ([3]; mouse kidneys, 60 min, mean of three mice, range 3.0-4.0): 3.4 %ID/g
- Tissue distribution, % Dose/Organ ([3]; mouse kidneys, 120 min, mean of four mice, range 0.40-0.57): 0.46 % Dose/Organ
- tissue uptake at 2 h ([3]; mouse kidneys, 120 min, mean of four mice, range 1.2-1.8): 1.5 %ID/g
- tissue uptake at 5 min ([3]; mouse liver, 5 min, mean of three mice, range 5.2-5.7): 5.4 %ID/g
- Tissue distribution, % Dose/Organ ([3]; mouse liver, 5 min, mean of three mice, range 8.2-8.3): 8.2 % Dose/Organ
- tissue uptake at 1 h ([3]; mouse liver, 60 min, mean of three mice, range 2.4-3.4): 2.9 %ID/g
- Tissue distribution, % Dose/Organ ([3]; mouse liver, 60 min, mean of three mice, range 3.8-4.1): 4.0 % Dose/Organ
- tissue uptake at 2 h ([3]; mouse liver, 120 min, mean of four mice, range 1.2-1.9): 1.4 %ID/g
- Tissue distribution, % Dose/Organ ([3]; mouse liver, 120 min, mean of four mice, range 1.5-1.8): 1.6 % Dose/Organ
- Tissue distribution, % Dose/Organ ([3]; mouse lungs, 5 min, mean of three mice, range 2.0-2.1): 2.0 % Dose/Organ
- tissue uptake at 5 min ([3]; mouse lungs, 5 min, mean of three mice, range 11-14): 13 %ID/g
- Tissue distribution, % Dose/Organ ([3]; mouse lungs, 60 min, mean of three mice, range 0.24-0.29): 0.27 % Dose/Organ
- tissue uptake at 1 h ([3]; mouse lungs, 60 min, mean of three mice, range 1.6-2.3): 1.9 %ID/g
- Tissue distribution, % Dose/Organ ([3]; mouse lungs, 120 min, mean of four mice, range 0.09-0.16): 0.12 % Dose/Organ
- tissue uptake at 2 h ([3]; mouse lungs, 120 min, mean of four mice, range 0.70-1.50): 0.95 %ID/g
- Tissue distribution, % Dose/Organ ([3]; mouse ovaries, 60 min, mean of three mice, range 0.028-0.057): 0.040 % Dose/Organ
- Tissue distribution, % Dose/Organ ([3]; mouse ovaries, 120 min, mean of four mice, range 0.009-0.022): 0.014 % Dose/Organ
- Tissue distribution, % Dose/Organ ([3]; mouse small intestine, 5 min, mean of three mice, range 3.2-6.8): 5.3 % Dose/Organ
- tissue uptake at 5 min ([3]; mouse small intestine, 5 min, mean of three mice, range 4.0-4.8): 4.3 %ID/g
- Tissue distribution, % Dose/Organ ([3]; mouse small intestine, 60 min, mean of three mice, range 1.6-3.6): 2.9 % Dose/Organ
- tissue uptake at 1 h ([3]; mouse small intestine, 60 min, mean of three mice, range 1.7-3.4): 2.5 %ID/g
- Tissue distribution, % Dose/Organ ([3]; mouse small intestine, 120 min, mean of four mice, range 0.7-1.9): 1.3 % Dose/Organ
- tissue uptake at 2 h ([3]; mouse small intestine, 120 min, mean of four mice, range 0.8-1.7): 1.3 %ID/g
- Tissue distribution, % Dose/Organ ([3]; mouse spleen, 5 min, mean of three mice, range 0.82-1.05): 0.95 % Dose/Organ
- tissue uptake at 5 min ([3]; mouse spleen, 5 min, mean of three mice, range 4.7-6.5): 5.8 %ID/g
- Tissue distribution, % Dose/Organ ([3]; mouse spleen, 60 min, mean of three mice, range 0.25-0.28): 0.26 % Dose/Organ
- tissue uptake at 1 h ([3]; mouse spleen, 60 min, mean of three mice, range 1.1-1.9): 1.6 %ID/g
- Tissue distribution, % Dose/Organ ([3]; mouse spleen, 120 min, mean of four mice, range 0.043-0.073): 0.062 % Dose/Organ
- tissue uptake at 2 h ([3]; mouse spleen, 120 min, mean of four mice, range 0.40-0.73): 0.57 %ID/g
